The NIST ThermoML archive (doi:10.1016/j.jct.2018.04.018)
Values joined by “and” are separate entries in the source; they are usually repeats but may differ in a detail not shown here. Identical values can stand only once.

Conditions: 101.33 kPa, Liquid; for mass density: Vibrating tube method; for speed of sound: Single path-length method

CCCCCCCC[n+]1ccn(C)c1.F[P-](F)(F)(F)(F)F [1-octyl-3-methylimidazolium hexafluorophosphate]
Conditions | viscosity [mPa·s]
269.96 K, Cone and plate viscometry | 8278
270.27 K, Cone and plate viscometry | 7970.4
270.37 K, Cone and plate viscometry | 7819.7
270.91 K, Cone and plate viscometry | 7509
271.66 K, Cone and plate viscometry | 6771
272.33 K, Cone and plate viscometry | 6420
272.44 K, Cone and plate viscometry | 6269.6
273.24 K, Cone and plate viscometry | 5792.5
274.02 K, Cone and plate viscometry | 5350.3
274.63 K, Cone and plate viscometry | 4992.4
274.8 K, Cone and plate viscometry | 4951.8
274.81 K, Cone and plate viscometry | 4903
274.88 K, Cone and plate viscometry | 4879
275.31 K, Cone and plate viscometry | 4651.9
275.44 K, Cone and plate viscometry | 4635.1
275.56 K, Cone and plate viscometry | 4593.6
276.14 K, Cone and plate viscometry | 4334
276.34 K, Cone and plate viscometry | 4268.2
276.47 K, Cone and plate viscometry | 4216.3
276.9 K, Cone and plate viscometry | 4053
277.09 K, Cone and plate viscometry | 3957.1
277.68 K, Cone and plate viscometry | 3777
277.76 K, Cone and plate viscometry | 3737
277.85 K, Cone and plate viscometry | 3693.3
278.15 K, Concentric cylinders viscometry | 3543
278.46 K, Cone and plate viscometry | 3522.8
278.6 K, Cone and plate viscometry | 3439.8
279.19 K, Cone and plate viscometry | 3241
279.24 K, Cone and plate viscometry | 3279.4
279.34 K, Cone and plate viscometry | 3221.2
280.01 K, Cone and plate viscometry | 3050.1
280.09 K, Cone and plate viscometry | 3002.8
280.77 K, Cone and plate viscometry | 2845.3
280.78 K, Cone and plate viscometry | 2866
280.84 K, Cone and plate viscometry | 2803.8
281.53 K, Cone and plate viscometry | 2656.6
281.59 K, Cone and plate viscometry | 2620.4
282.29 K, Cone and plate viscometry | 2486.9
282.33 K, Cone and plate viscometry | 2458
282.53 K, Cone and plate viscometry | 2412.6
283.04 K, Cone and plate viscometry | 2331.3
283.08 K, Cone and plate viscometry | 2299.1
283.15 K, Concentric cylinders viscometry | 2263.1
283.79 K, Cone and plate viscometry | 2174
283.83 K, Cone and plate viscometry | 2154.4
284.54 K, Cone and plate viscometry | 2037.4
284.55 K, Cone and plate viscometry | 2001
284.58 K, Cone and plate viscometry | 2017.2
285.28 K, Cone and plate viscometry | 1916
285.32 K, Cone and plate viscometry | 1893.2
286.03 K, Cone and plate viscometry | 1799.7
286.06 K, Cone and plate viscometry | 1779.6
286.78 K, Cone and plate viscometry | 1697.1
286.8 K, Cone and plate viscometry | 1672.4
287.52 K, Cone and plate viscometry | 1594.4
287.55 K, Cone and plate viscometry | 1572.8
288.15 K, Concentric cylinders viscometry | 1475.1
288.27 K, Cone and plate viscometry | 1496.8
288.29 K, Cone and plate viscometry | 1479.3
289.02 K, Cone and plate viscometry | 1407.5
289.03 K, Cone and plate viscometry | 1391.9
289.76 K, Cone and plate viscometry | 1327.8
289.78 K, Cone and plate viscometry | 1313.9
290.5 K, Cone and plate viscometry | 1253.5
290.52 K, Cone and plate viscometry | 1241
291.24 K, Cone and plate viscometry | 1183.2
291.27 K, Cone and plate viscometry | 1168.4
291.98 K, Cone and plate viscometry | 1115.8
292 K, Cone and plate viscometry | 1101.8
292.73 K, Cone and plate viscometry | 1053.3
292.75 K, Cone and plate viscometry | 1040.1
293.15 K, Concentric cylinders viscometry | 1001.1
293.48 K, Cone and plate viscometry | 994.4
293.49 K, Cone and plate viscometry | 984.3
294.22 K, Cone and plate viscometry | 932.9
294.25 K, Cone and plate viscometry | 929.4
294.96 K, Cone and plate viscometry | 882.6
295.02 K, Cone and plate viscometry | 879.2
295.71 K, Cone and plate viscometry | 844.7
295.79 K, Cone and plate viscometry | 829.3
296.47 K, Cone and plate viscometry | 798
296.57 K, Cone and plate viscometry | 784.2
297.2 K, Cone and plate viscometry | 757
297.33 K, Cone and plate viscometry | 741.5
297.94 K, Cone and plate viscometry | 718

Conditions | mass density | speed of sound [m/s]
278.15 K | 1252.41 kg/m3 and 1252.42 kg/m3 | –
278.16 K | 1252.41 kg/m3 | –
283.15 K | 1248.4 kg/m3 [middle of 4 runs] | 1460.8
288.15 K | 1244.12 kg/m3 | –
293.15 K | 1240.16 kg/m3 and 1240.34 kg/m3 and 1240.35 kg/m3 | 1425.5
293.17 K | 1240.24 kg/m3 | –
